Patent US8575188B2 (priority 2009, dated 2013)
Read-outs that look alike come from different tables or passages of the source.

What was measured:
[1] = tested on: bone marrow progenitor cells; assay: Bone marrow progenitor cell clonogenic assay (CFU-GM), mouse; conditions: for IC50: read-out: Mouse CFU-GM (IC50 nM) THLD
Procedure: (§1) A clonogenic assay was performed using bone marrow progenitor cells derived from the blood of mice and humans.

[2] = tested on: bone marrow progenitor cells; assay: Bone marrow progenitor cell clonogenic assay (CFU-GM), human; conditions: for IC50: read-out: Human CFU-GM (IC50 nM) THLD
Procedure: as §1

[3] = tested on: human non small cell lung cancer cell line H460; assay: Antiproliferation (cytotoxicity) assay, 72 hrs under air, Alamar Blue; assay type: cell-based; conditions: read-out: IC50
[4] = tested on: human prostate cancer cell line PC-3; assay: Antiproliferation assay, 72 hrs under air, Alamar Blue; assay type: cell-based; conditions: read-out: PC3 IC50
[5] = tested on: human colon cancer cell line HT-29; assay: as above; assay type: cell-based; conditions: read-out: HT29 IC50
[6] = tested on: human melanoma cell line SKMEL2; assay: as above; assay type: cell-based; conditions: read-out: SKMEL-2 IC50
[7] = tested on: human melanoma cell line SKMEL-28; assay: as above; assay type: cell-based
[8] = tested on: human melanoma cell line A375; assay: as above; assay type: cell-based
[9] = tested on: human melanoma cell line MAMLE-3M; assay: as above; assay type: cell-based
[10] = tested on: human prostate cancer cell line DU145; assay: as above; assay type: cell-based
[11] = tested on: human prostate cancer cell line LNCap; assay: as above; assay type: cell-based
[12] = tested on: human ovarian cancer cell line IGROV-1; assay: as above; assay type: cell-based
[13] = tested on: BCRP, which over expressed the breast cancer resistance protein; assay: Efflux pump drug resistance, antiproliferation assay, BCRP over expressing line; conditions: for 5d BCRP/pcDNA / 3d BCRP/pcDNA: ratio of IC50s, BCRP over expressing versus parent line; for 5d BCRP/pcDNA: 5 days; for 3d BCRP/pcDNA: 3 days
Procedure: (§2) The compounds were screened for cytotoxicity using human non small cell lung cancer cell line H460. […]
(§3) Cellular drug resistance was determined using the antiproliferation assay described above.

[14] = tested on: Messa ovarian carcinoma cell line; assay: Efflux pump drug resistance, antiproliferation assay, parent line; assay type: cell-based; conditions: Homo sapiens, MES-SA, air
Procedure: […] Cells were treated with test compounds at various concentrations under air for 72 hrs, and then cell viability and proliferation were assessed by Alamar Blue staining.
as §3

[15] = tested on: DX5, which over expresses the MDR 1 efflux pump; assay: Efflux pump drug resistance, antiproliferation assay, MDR 1 over expressing line; assay type: cell-based; conditions: air
Procedure: as §2, §3

[16] = tested on: H69 small cell lung cancer line; assay: Efflux pump drug resistance, antiproliferation assay, parent line; assay type: cell-based; conditions: air
Procedure: as §2, §3

[17] = tested on: pcDNA; assay: as above; assay type: cell-based; conditions: air
Procedure: as §2, §3

[18] = tested on: MRP1 over expressing H69AR line; assay: Efflux pump drug resistance, antiproliferation assay, MRP1 over expressing line; assay type: cell-based; conditions: Homo sapiens, air
Procedure: as §2, §3

[19] = Bone marrow progenitor cell clonogenic assay (CFU-GM), mouse; conditions: mouse
Procedure: as §1

[20] = Bone marrow progenitor cell clonogenic assay (CFU-GM), human; conditions: human
Procedure: as §1

[21] = tested on: H46O cells; assay: Selective hypoxic activation of 14-nitro prodrugs in cell culture; assay type: cell-based, human; conditions: TH1332 at 5 micromolar, 24 hour
Procedure: H46O cells were grown to a confluent monolayer and then the 14-nitro TH1332 prodrug was added to the media at 5 micromolar concentration. Incubations were done for 24 hour either under air or nitrogen (hypoxia), media and cells were recovered, sonicated and soluble extracts were isolated by acetonitrile precipitation of proteins. The level of amino TH1338 active cytotoxin were quantitated by liquid chromotagraphy mass spectra analysis. The equivalent of 70 nanomolar TH1338 was produced under hypoxia with undetectable levels being produced under air (less than 5 nanomolar).
The analogous experiment was preformed using 1 micromolar concentration of the 14-nitro derivative TH1431. After 24 hr, 180 nanomolar of the 14 amino TH1499 was produced under nitrogen with undetectable levels produced under air (less than 5 nanomolar).

[22] = tested on: human colon cancer HT-29; assay: Xenograft model, subcutaneous, tumor growth inhibition and body weight loss; conditions: for TGI (%): HT29, PO, QD × 5/wk; for Max. BWL (%): mouse, in vivo, po
Procedure: (§4) The first three models were produced by subcutaneous implantation of the appropriate number of cells into the flank of the animals. When tumor size was approximately 150 mm^3, animals were randomized into groups of 10 mice each for dosing. One arm was dosed with only vehicle and the results used for the efficacy calculations. […] TGI=(1−T/C) %. T/C ratio was calculated as T/C=(Tn−Ti)/(Cn−Ci), where Tn is tumor volume in treatment group on Day n, and Ti is the initial tumor volume in the treatment group. Cn is the tumor volume of the vehicle group on the last day of measurement. Ci is the initial tumor volume in the vehicle control group. Day n is the last measurement taken when all the animals in the vehicle group were not yet euthanized. Animals were euthanized when tumor volumes grew larger than 2000 mm^3.

[23] = tested on: human non small cell lung cancer H-460; assay: as above; conditions: for TGI (%): H460, PO, QD × 5/wk, 2 weeks; for Max. BWL (%): mouse, in vivo, po
Procedure: as §4

[24] = tested on: human prostate cancer PC-3; assay: as above; conditions: for TGI (%): PC3, PO, QD × 5/wk, 2 weeks; for Max. BWL (%): mouse, in vivo, po
Procedure: as §4

[25] = Brain penetration, AUC in brain versus AUC plasma; conditions: mouse
Procedure: Certain compounds of the invention were assessed for brain penetration by comparing the AUC for plasma exposure versus the AUC in brain.

[26] = In vivo pharmacokinetics, oral gavage; conditions: CD, mouse, in vivo, po; for AUC / Cmax: 50 mg/kg
Procedure: The data normalized to a 50 mg/kg dose are shown below (compounds were dosed at either 25 or 50 mg/kg).

[27] = tested on: IGROV1 human ovarian cancer cells; assay: Xenograft model of metastatic ovarian cancer (i.p.), survival; conditions: IGROV1 i.p., median survival treated / vehicle times 100; PO, QD × 5/wk, 4 weeks, 150 mg/Kg
Procedure: One arm was dosed with only vehicle and the results used for the efficacy calculations. […] A xenograft model of metastatic ovarian cancer was set up by the intraperitoneal (i.p) injection of 3×10^6 IGROV1 human ovarian cancer cells in nude mice. Mice were evaluated twice a week for morbidity and mortality. Kaplan-Meier survival curves were plotted.

[28] = Homo sapiens, NCI-H460, H460, inhibition of proliferation, 72 hrs under air
[29] = 120 h, 5 days, read-out: Air 5d MESSA prol. IC50
[30] = MDR1, 120 h, 5 days, read-out: Air 5d DX5 prol. IC50
[31] = 120 h, 5 days, read-out: Air 5d H69 prol. IC50
[32] = 120 h, 5 days, read-out: Air 5d pcDNA prol. IC50
[33] = 120 h, 5 days, read-out: Air 5d H69ar (MRP1) prol. IC50
[34] = 120 h, read-out: Air 5d BCRP prol. IC50 nM, air, 5 days
[35] = 72 h, 3 days, read-out: Air 3d MESSA prol. IC50
[36] = MDR1, 72 h, 3 days, read-out: Air 3d DX5 prol. IC50
[37] = 72 h, 3 days, read-out: Air 3d pcDNA prol. IC50
[38] = 72 h, read-out: Air 3d BCRP prol. IC50 nM, air, 3 days
[39] = 72 h, 3 days, read-out: Air 3d H69 prol. IC50
[40] = 72 h, 3 days, read-out: Air 3d H69ar (MRP1) prol. IC50

Row | Compound | IC50 [3, 28] | IC50 [14, 29] | IC50 [15, 30] | IC50 [16, 31] | IC50 [18, 33] | IC50 [14, 35] | IC50 [15, 36] | IC50 [17, 37] | IC50 [13, 38] | 3d BCRP/pcDNA [13] | IC90 [19] | IC50 ([1]; Mus musculus, CFU-GM) | IC90 [20] | IC50 ([2]; Homo sapiens, CFU-GM) | half-life [26] | AUC [26] | Cmax [26] | IC50 [16, 39] | IC50 [18, 40] | also measured
1 | CC[C@@]1(O)C(=O)OCc2c1cc1n(c2=O)Cc2cc3c(N)cccc3nc2-1 [9-amino camptothecin, reference compound] | – | – | – | – | – | – | – | – | – | – | – | – | – | – | – | – | – | – | – | IC50 ([1]; mouse bone marrow progenitor cells, clonogenic assay): 90 nM; IC90 ([1]; read-out: Mouse CFU-GM (IC90 nM) THLD, IC90, mouse bone marrow progenitor cells, clonogenic assay): 700 nM; IC50 ([2]; human bone marrow progenitor cells, clonogenic assay): 1.2 nM; IC90 ([2]; read-out: Human CFU-GM (IC90 nM) THLD, IC90, human bone marrow progenitor cells, clonogenic assay): 8 nM
2 | CCc1c2c(nc3ccc(O)cc13)-c1cc3c(c(=O)n1C2)COC(=O)[C@]3(O)CC [SN-38, reference compound] | – | – | – | – | – | – | – | – | – | – | – | – | – | – | – | – | – | – | – | IC50 [3]: 54 nM; IC50 [4]: 4 nM; IC50 [5]: 224 nM; IC50 [6]: 100 nM; IC50 [7]: 10000 nM; IC50 [8]: 4 nM; IC50 [9]: 200 nM; IC50 [10]: 4 nM; IC50 [11]: 9 nM; IC50 [12]: 30 nM; ratio BCRP over expressing line versus the parent cell line ([13]; not told): > 220; IC50 [1]: 110 nM; IC50 [2]: 1.3 nM
3 | CC[C@@]1(O)C(=O)OCc2c1c([N+](=O)[O-])c1n(c2=O)Cc2cc3ccccc3nc2-1 [TH1317] | > 1000 nM | > 500 nM | > 500 nM | 933 nM | 1320 nM | – | – | – | – | – | – | – | – | – | – | – | – | – | – | IC50 [17, 32]: 57 nM; IC50 [13, 34]: 82 nM; 5d BCRP/pcDNA [13]: 1.4386
4 | CCc1c2c(nc3ccccc13)-c1c([N+](=O)[O-])c3c(c(=O)n1C2)COC(=O)[C@]3(O)CC [TH1332] | 66 nM | 2330 nM | 2740 nM | 4220 nM | 8710 nM | 5300 nM | 6300 nM | 1800 nM | 2300 nM | 1.3 | > 10000 nM | > 10000 nM | > 100 nM | > 1000 nM | 375 min | 1820 ng·h/mL | 380 ng/mL | – | – | IC50 [17, 32]: 24 nM; IC50 [13, 34]: 21 nM; 5d BCRP/pcDNA [13]: 0.875; TH1338 produced under air ([21]; air, undetectable levels): less than 5 nanomolar; TH1338 produced under hypoxia ([21]; nitrogen (hypoxia), LC-MS): 70 nM; TGI (%) ([22]; 4 weeks, 150 mg/Kg): 62.8%; Max. BWL (%) ([22]; 150 mg/kg): 0%; TGI (%) ([23]; 150 mg/Kg): 91.4%; Max. BWL (%) ([23]; 150 mg/kg): 11.4%; TGI (%) ([24]; 150 mg/Kg): 103%; Max. BWL (%) ([24]; 150 mg/kg): 1.8%; Kp [25]: 0.18; T/C [27]: 159
5 | CC[C@@]1(O)C(=O)OCc2c1c(N)c1n(c2=O)Cc2cc3c(N)cccc3nc2-1 [TH1386] | 71 nM | – | – | – | – | 52 nM | 28 nM | 5.6 nM | 26.6 nM | 4.75 | 3500 nM | 680 nM | 210 nM | 30 nM | 25.6 min | 3100 ng·h/mL | 5860 ng/mL | 141 nM | 195 nM | –
6 | CCc1c2c(nc3ccccc13)-c1c(NC=O)c3c(c(=O)n1C2)COC(=O)[C@]3(O)CC [TH1408] | 66 nM | – | – | – | – | 81 nM | 40 nM | 9.5 nM | 7.3 nM | 0.7684 | 5000 nM | 700 nM | 650 nM | 90 nM | 48.3 min | 8430 ng·h/mL | 6070 ng/mL | 242 nM | 285 nM | –
7 | CC[C@@]1(O)C(=O)OCc2c1c([N+](=O)[O-])c1n(c2=O)Cc2c-1nc1ccccc1c2C [TH1446] | 850 nM | 4450 nM | 4960 nM | 2740 nM | 8510 nM | – | – | 574 nM | 2740 nM | 4.777 | – | – | – | – | 35.4 min | 4280 ng·h/mL | 5100 ng/mL | – | – | TGI (%) ([22]; 2 weeks, 40 mg/Kg): 29.5%; Max. BWL (%) ([22]; 40 mg/kg): 1.1%
8 | CC[C@@]1(O)C(=O)OCc2c1c(N)c1n(c2=O)Cc2c-1nc1ccccc1c2/C=N/OC(C)(C)C [TH1499] | 19 nM | – | – | – | – | 9 nM | 5 nM | 3.2 nM | 3.4 nM | 1.0625 | – | – | – | – | – | – | – | 217 nM | 463 nM | TGI (%) ([22]; 2 weeks, 25 mg/Kg): 4.7%; Max. BWL (%) ([22]; 25 mg/kg): 1.8%
9 | CC[C@@]1(O)C(=O)OCc2c1c(NC=O)c1n(c2=O)Cc2cc3ccccc3nc2-1 [TH1589] | 59 nM | – | – | – | – | – | – | – | – | – | 6200 nM | 920 nM | 680 nM | 110 nM | – | – | – | – | – | TGI (%) ([23]; 30 mg/Kg): 76%; Max. BWL (%) ([23]; 30 mg/kg): 10.4%; TGI (%) ([24]; 40 mg/Kg): 80%; Max. BWL (%) ([24]; 40 mg/kg): 0.1%
10 | CCCc1c2c(nc3ccccc13)-c1c(N)c3c(c(=O)n1C2)COC(=O)[C@]3(O)CC [TH1651] | 6.2 nM | – | – | – | – | – | – | – | – | – | – | – | – | – | – | – | – | – | – | TGI (%) ([23]; 40 mg/Kg): 80%; Max. BWL (%) ([23]; 40 mg/kg): 5.5%; TGI (%) ([24]; 40 mg/Kg): 80%; Max. BWL (%) ([24]; 40 mg/kg): 4.8%
